# Values of other authors, collected in patent US20060172402A1, “Production of vanillin in microbial cells” (priority 2002, published 2006).
# Test system: tobacco class II COMT
# Conditions: Maury et al., 1999
row,activity of the enzyme against the substrate,SMILES
1,did have activity,"O=Cc1ccc(O)c(O)c1 [3,4-Dihydioxybenzaldehyde, 3,4-dihydroxybenzaldehyde]"
2,no activity,COc1cc(/C=C/C(=O)O)cc(O)c1O [5-OH-Ferulic acid]
3,no activity,O=C(O)/C=C/c1ccc(O)c(O)c1 [Caffeic acid]
